Experiments:
[1] = system: bone marrow dendritic cells of C3H/HeJ (TLR4 mutant) mice; test: Dendritic cell activation (CD40/CD86, flow cytometry), TLR4 mutant cells (Example 13); format: cell-based, mouse; details: FIG. 7; for expression of CD40 and CD86 on CD11c positive dendritic cells, versus wild-type: TLR4 mutant dendritic cells, 20 micrograms/millilitre, overnight stimulation; for induction of CD40 and CD86 relative to LPS: TLR mutant mice dendritic cells
Experimental: (§1) Pathogen-free, female C3H/HeOuJ (wild-type) mice and C3H/HeJ (TLR4 mutant) mice, 6-8 weeks of age were purchased from the Jackson Laboratory (Bar Harbor, Me., USA) and were housed according to institutional guidelines with water and food ad libitum under filter controlled air circulation.
(§2) Dendritic cells were prepared from bone marrow of either wild-type or TLR4 mutant mice as follows. Femurs and tibia bones were isolated from naïve mice and flushed under sterile conditions with phosphate buffered saline. Red blood cells were lysed using ammonium chloride potassium lysing solution. Cells were counted and resuspended in complete RMPI 1640 media containing 10% fetal bovine serum (Hyclone, Nepean, ON, Canada), 1% penicillin-streptomycin (Gibco, Burlington, ON, Canada), 2 millimolar L-glutamine (Gibco), 1% HEPES buffer (Gibco) and […] beta-mercaptoethanol (Sigma-Aldrich, Oakville, ON, Canada) at a concentration of 1.2×10E6 cells/millitre. Cells were cultured in a 6-well plate supplemented with 10 nanograms/milliliter of GM-CSF (Peprotech, Rocky Hill, N.J., USA) for 8 days, additional media was added on day 3 and day 6. On day 7, cells were stimulated with JL-265 or JL-266 prepared in DMSO, or DMSO vehicle control, or poly I:C (Thermo-Fisher), or lipopolysaccharide (LPS; Sigma-Aldrich). Non-adherent cells were collected on day 8 and stained with fluorochrome-conjugated antibodies specific for CD11c (clone), CD40 (clone) or CD86 (Clone). Cells were analyzed by flow cytometry using a FACSCalibur (BD Bioscience, Mississauga ON, Canada) and Win List 3D 7.0 software (Verity Software House, Topsham, Me., USA).
(§3) Results were analysed by gating first on CD11c positive cells (dendritic cell marker), then determining the percent that were double positive for CD40 or CD86.

[2] = system: C3 tumors (HPV16-expressing C3 cells); test: C3 tumor challenge, DepoVax (DPX) vaccine (Example 12); format: in vivo, mouse (C57BL6); details: for tumor volume fold smaller than control DepoVax composition (Group 1): Table 2, DepoVax; for Tumor Volume (mm^3): Table 2, Example 12, FP peptide 10 micrograms + lipid A mimic 10 micrograms in DepoVax, s.c. on day 5 after C3 implantation; for tumor volumes compared to control groups: at 40 days, DPX vaccine, FIG. 6
Source text: (§4) Pathogen-free, female C57BL6 mice, 6-8 weeks of age were purchased from Charles River Laboratories (St. Constant, Quebec, Canada) and were housed according to institutional guidelines with water and food ad libitum under filter controlled air circulation.
(§5) The C3 tumor cell line used in this study is a well-described mouse model for pre-clinical cervical cancer research. HPV16-expressing C3 cells are derived from B6 mouse embryo cells transformed with the complete HPV16 genome under its own promoter and an activated-ras oncogene. The C3 cell line develops tumors when injected subcutaneously and has been used in cancer challenge studies to examine the efficacy of vaccine administered before or after C3 tumor cell implantation. The C3 cell line was maintained in Iscove Modified Dulbecco's Medium (IMDM; Sigma, St. Louis, Mo.) supplemented with 10% heat-inactivated fetal calf serum (Hyclone), 2 mM 1-glutamine, […] 2-mercaptoethanol, penicillin and streptomycin. Cells were incubated at 37° C./5% CO2.
(§6) The HPV16E7 (H-2Db) peptide 49-67, RAHYNIVTF (SEQ ID NO: 1), containing a CTL epitope was fused to PADRE containing a CD4+ T helper epitope by Polypeptide Group (San Diego, Calif., USA). This peptide is hereafter designated as FP.
(§7) To formulate vaccines described herein, a 10:1 mixture of dioleoyl phosphatidylcholine (DOPC) (120 milligrams/mL) and cholesterol (12 milligrams/mL) was solubilized in tert-butanol. FP antigen was first solubilized in dimethyl sulfoxide, although a water suspension of FP can also be used, and then added to the DOPC/cholesterol/tert-butanol mixture. The lipid A mimics JL-265 and JL-266 were first solubilized in dimethyl sulfoxide. Where indicated, JL-265 or JL-266 were also added to the FP/DOPC/tert-butanol mixture. A dry homogeneous mixture of antigen with or without lipid A mimic was prepared by removing the solvent and water present in the formulation by lyophilization. The dry mixture was then suspended in Incomplete Freund's adjuvant, a mineral oil-based model hydrophobic carrier. This formulation is henceforth referred to as DepoVax (DPX).
(§8) To test the efficacy of these oil-based vaccine formulations, groups of mice (8 mice per group) were implanted subcutaneously in the left flank with 5×10E5 C3 cells suspended in 100 microlitres of HBSS media. Five days later, mice were vaccinated subcutaneously in the right flank with 50 microlitres of vaccine. Mice in Group 1 were vaccinated with FP peptide (10 micrograms) in DPX containing no lipid A mimic. Mice in Group 2 were vaccinated with FP peptide (10 micrograms) in DPX containing JL-265 (10 micrograms). Mice in Group 3 were vaccinated with FP peptide (10 micrograms) in DPX containing JL-266 (10 micrograms). Mice in Group 4 served as a tumor growth control and were vaccinated with saline containing no antigen or lipid A mimic.

[3] = system: C3 tumors (HPV16-expressing C3 cells); test: C3 tumor challenge, aqueous liposome vaccine (Example 10); format: in vivo, mouse (C57BL6); details: for Tumor Volume (mm^3): Table 1, Example 10, FP peptide 10 micrograms + lipid A mimic 10 micrograms in liposomes, water carrier, s.c. on day 5 after C3 implantation; for tumor volumes compared to control groups: at 28 days, liposome vaccine, FIG. 4
Source text: as §4, §5, §6
To formulate the vaccines herein, 160 micrograms of FP was mixed with a DOPC/cholesterol mixture (10:1, w/w, Lipoid GmbH, Germany) dissolved in tert-butanol. When lipid A mimics were included, 160 micrograms of JL-265 or JL-266 were added to the FP/DOPC/chol mixture. The mixture was lyophilized and then reconstituted in reconstituted in […] of sterile water to formulate liposomes containing antigen with or without lipid A mimic. Each vaccine dose was 50 microlitres and contained 10 micrograms of FP peptide with or without 10 micrograms of lipid A mimic (JL-265 or JL-266).
as §8, with “liposome-based” for “oil-based”, “(7” for “(8”, “liposomes” for “DPX”

[4] = system: bone marrow dendritic cells of C3H/HeOuJ (wild-type) mice; test: Dendritic cell activation (CD40/CD86, flow cytometry), wild-type cells (Example 13); format: cell-based, mouse; details: FIG. 7; for expression of CD40 and CD86 on CD11c positive dendritic cells: wild-type dendritic cells, 20 micrograms/millilitre, overnight stimulation; for induction of CD40 and CD86 relative to LPS: wild-type mice dendritic cells
Experimental: as §1, §2, §3

[5] = system: antigen-specific IFN-gamma response to R9F peptide (splenocytes); test: IFN-gamma ELISPOT immunogenicity of DPX vaccine (Example 14); format: in vivo, mouse (C57BL6); details: R9F+F21E in DPX with 5 micrograms lipid A mimic, FIG. 8; for enhancement of antigen-specific IFN-gamma response to R9F: s.c., spleens eight days after vaccination
Source text: as §4
The peptides used in this example were synthesized by Polypeptide Group (San Diego, Calif., USA). Vaccines contained the MHC class I epitope HPV16E7 (H-2Db) 49-67 (RAHYNIVTF, R9F; […]; SEQ ID NO: 23).
as §7, with “R9F and F21E peptide antigens were” for “FP antigen was”, “sulfoxide” for “sulfoxide, although a water suspension of FP can also be used,”
To test the immunogenicity of the vaccine, naïve mice (n=5) were immunized subcutaneously with 50 microlitres of DPX vaccine containing R9F and F21E with no lipid A mimic (Group 1), 5 micrograms of JL-265 (Group 2) or 5 micrograms of JL-266 (Group 3). Mice in Group 4 (n=2) were not immunized and served as the naïve control. Eight days after vaccination, mice in all groups were terminated and spleens collected. A single cell suspension of splenocytes was prepared at a concentration of 5×10E6 cells per milliliter and 100 microlitres added to wells of a 96-well ELISPOT plate pre-coated with anti-IFN-gamma (BD Bioscience). In duplicate, 100 microlitres of media containing 20 micrograms per milliliter of an irrelevant peptide antigen or R9F was added to the splenocytes, or media containing no peptide as a background control. The plate was incubated overnight at 37° C. and developed next day following manufacturers instructions using AEC chromogen (Sigma-Aldrich). Spots were quantified using ELISPOT plate reader (C.T.L., Shaker Heights).

[6] = system: C3 tumors (HPV16-expressing C3 cells); test: C3 tumor challenge, oil-based (IFA) vaccine (Example 11); format: in vivo, mouse (C57BL6); details: at 28 days; FP peptide 10 micrograms in oil (IFA) with 10 micrograms lipid A mimic, FIG. 5
Source text: as §4, §5, §6
To formulate the vaccine herein, FP peptide was solubilized in dimethyl sulfoxide and mixed with Incomplete Freund's adjuvant (IFA). […]

Row | Compound | expression of CD40 and CD86 on CD11c positive dendritic cells, versus wild-type [1] | induction of CD40 and CD86 relative to LPS [1] | tumor volume fold smaller than control DepoVax composition (Group 1) [2] | Tumor Volume (mm^3) [2] [mm^3] | tumor volumes compared to control groups [2] | Tumor Volume (mm^3) [3] [mm^3] | tumor volumes compared to control groups [3] | expression of CD40 and CD86 on CD11c positive dendritic cells [4] | induction of CD40 and CD86 relative to LPS [4] | enhancement of antigen-specific IFN-gamma response to R9F ([5]; versus no lipid A mimic) | generation of an immune response (IFN-gamma ELISPOT) [5] | tumor volumes compared to control groups [6] | increase in the immune response (IFN-gamma ELISPOT) ([5]; versus no lipid A mimic) [fold] | expression of CD40 and CD86 on CD11c positive dendritic cells, versus wild-type ([1]; listed as polyI:C)
1 | CCCCCCCCCCCCCC(=O)O[C@H](CCCCCCCCCCC)CC(=O)NC1C(OC(=O)C[C@@H](CCCCCCCCCCC)OC(=O)CCCCCCCCCCCCC)[C@H](OP(=O)(O)O)C(CO)O[C@H]1OCCN(C(=O)C[C@@H](CCCCCCCCCCC)OC(=O)CCCCCCCCCCCCC)c1cccc(O)c1 (stereo in doubt) [JL-265] | significantly reduced | slightly lower induction | about 3.1 fold | 445 ± 395 | significantly smaller tumor volumes | 319 ± 122 | significantly smaller tumor volumes | strong increased expression | the same as LPS | did not enhance | capable of generating an immune response | significantly smaller tumor volumes | – | –
2 | CCCCCCCCCCCCCC(=O)O[C@H](CCCCCCCCCCC)CC(=O)NC1C(OC(=O)C[C@@H](CCCCCCCCCCC)OC(=O)CCCCCCCCCCCCC)[C@H](OP(=O)(O)O)C(CO)O[C@H]1OCCN(C(=O)C[C@@H](CCCCCCCCCCC)OC(=O)CCCCCCCCCCCCC)c1cccc(OP(=O)(O)O)c1 (stereo in doubt) [JL-266] | significantly reduced | slightly lower induction | ~6.3 fold | 219 ± 139 | significantly smaller tumor volumes | 380 ± 86 | significantly smaller tumor volumes | strong increased expression | the same as LPS | did | – | significantly smaller tumor volumes | ~2 | –
3 | lipopolysaccharide [LPS, reference compound] | significantly reduced | – | – | – | – | – | – | increase in expression | – | – | – | – | – | –
4 | poly I:C [reference compound] | comparably to wild-type dendritic cells | – | – | – | – | – | – | increase in expression | – | – | – | – | – | comparable stimulation

— US10988500B2, “Lipid A mimics, methods of preparation, and uses thereof” (Immunovaccine Technologies Inc., priority 2015, dated 2021)
